Experimental data from PubChem BioAssay (NCI).
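Briefly, cells in 96-well plates were exposed to five compound concentrations for 48 h, and endpoints were estimated by linear interpolation. GI50 = concentration required for 50% inhibition of growth. Definition used: TGI = concentration required for complete inhibition of growth.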

Experiments:
Assay in all cases: NCI-60 cell line screen, 48 h
[1] = system: CCRF-CEM leukemia
[2] = system: HL-60(TB) leukemia
[3] = system: IGROV1 ovarian
[4] = system: LOX IMVI melanoma
[5] = system: NCI-H226 lung
[6] = system: NCI-H460 lung
[7] = system: OVCAR-3 ovarian
[8] = system: RXF 393 renal
[9] = system: T-47D breast
[10] = system: U251 CNS
[11] = system: NCI/ADR-RES ovarian
[12] = system: SNB-75 CNS

SMILES | TGI [1] [µM] | TGI [2] [µM] | TGI [3] [µM] | TGI [4] [µM] | TGI [5] [µM] | TGI [6] [µM] | TGI [7] [µM] | TGI [8] [µM] | TGI [9] [µM] | TGI [10] [µM] | TGI [11] [µM] | TGI [12] [µM] | GI50 [1] [µM] | GI50 [4] [µM] | GI50 [11] [µM] | GI50 [7] [µM] | GI50 [8] [µM] | GI50 [12] [µM] | GI50 [9] [µM] | GI50 [10] [µM]
CCOC(=O)C1=C(c2ccccc2)C12N(Cc1ccccc1)C(=O)C2(c1ccccc1)c1ccccc1 (centres undefined) | > 100 | > 100 | > 100 | > 100 | 95.4 | > 100 | > 100 | > 100 | > 100 | > 100 | – | – | – | – | – | – | – | – | – | –
O=C1c2cc3c(cc2CC1Cc1ccc2c(c1)CCC2)CCC3 (centres undefined) | > 100 | > 100 | > 100 | > 100 | 65 | > 100 | > 100 | > 100 | 63.1 | > 100 | > 100 | 75.5 | – | – | – | – | – | – | – | –
COc1cc(-c2nc3cc(Cl)c(Cl)cc3[nH]2)ccc1OCC(=O)N=Nc1c(O)[nH]c2ccc(Cl)cc12 | 5.27 | – | – | 0.738 | – | – | 1.57 | 3.4 | 2.37 | 0.565 | > 100 | 3.93 | 0.28 | 0.233 | > 100 | 0.446 | 1 | 1 | 0.381 | 0.203
N#Cc1ccc(C2Oc3ccc(Cl)cc3C=C2[N+](=O)[O-])cc1 (centres undefined) | 1.03 | 3.91 | 3.11 | 3.02 | 29.6 | 5.18 | 3.04 | 9.86 | – | 3.31 | > 100 | 2.83 | – | – | – | – | – | – | – | –
